Test results taken from US8815875B2 (Merck Sharp & Dohme Corp., priority 2008, dated 2014).
pKd: −log10 of the molar value.

These compounds were tested against FABP4 (Homo sapiens, UniProt P15090) (assay: TdF (Temperature Dependence Fluorescence) assay, thermal shift, FABP4).
Assay type: binding
From the text: TdF (Temperature Dependence Fluorescence) Assay for FABP3 and FABP4
The TdF assay was mainly conducted in the 96-well based CHROMO-4 real time fluorescence plate reader (BioRad). The Sypro Orange (Sigma-Aldrich), environmentally sensitive fluorescence dye, was used to monitor the protein folding-unfolding transition. Protein-ligand binding was gauged by the change (or shift) in the unfolding transition temperature (ΔTm) acquired at protein alone with respect to protein in the presence of ligand of interest.
The compound of interest was first prepared in DMSO stock (typical concentration: 10 mM). […] Final percentage of DMSO resided in the sample was 2%. The sample plate was heated from 30° C. to 90° C. with thermal ramping rate of 1° C./min. The fluorescence signals were acquired with excitation and emission wavelengths centered at 490 and 560 nm respectively. The instrument thermal stability was ±0.2° C.
Theoretical basis for TdF-based ligand binding affinity constant
In brief, the binding constant of the ligand at the Tm is expressed as below:
[formula] where To is the midpoint of unfolding for unliganded protein and Tm is the midpoint of unfolding in presence of ligand. [LTm] is free ligand at Tm. The ΔHu and ΔCpu are the enthalpy of unfolding and heat capacity change of unfolding for the protein respectively.
The nonlinear regression fitting in general readily reaches convergence by properly constraining the initial values for the fitting parameters (e.g. the initial “guess” for the ΔHu was constrained to 120 kcal/mol; initial Yn and mn were set to 1 and zero to best represent the melting curve along the low temperature region; negative slope of −0.5 was initially chosen for mu; initial Tm was also constrained to 50° C.).
[formula] (see Brandts et al and Mayhood et al, shown above) where ΔHL (T) is the van't Hoff enthalpy of ligand binding at temperature T and ΔCpL is the heat capacity upon ligand binding. For simplicity, the ΔCpL and ΔHL (T) were set to zero and −7 kcal/mol respectively. […] TdCD (Temperature-dependent Circular Dichroism) Assay for FABP3/4/5

FABP4, sequence (P15090 whole entry, species assumed): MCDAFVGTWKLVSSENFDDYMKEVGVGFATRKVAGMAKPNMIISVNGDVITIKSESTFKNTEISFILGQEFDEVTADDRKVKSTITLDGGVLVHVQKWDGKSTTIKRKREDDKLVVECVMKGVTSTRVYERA

pKd, < 6.30:
CCc1ccc(OCc2[nH]c3ncnn3c(=O)c2F)cc1 [7-2]
CCc1ccc(OCc2cc(=O)n3nc(C(F)(F)F)nc3[nH]2)cc1 [8-2]
CCc1ccc(OCc2cc(=O)n3nc(C)nc3[nH]2)cc1 [8-3]
CCc1ccc(OCc2cc(=O)n3nc(CC)nc3[nH]2)cc1 [8-4]
CCc1ccc(OCc2cc(=O)n3nc(-c4cccnc4)nc3[nH]2)cc1 [8-5]
CCc1ccc(OCc2cc(=O)n3nc(C4CCC4)nc3[nH]2)cc1 [8-6]
CCc1ccc(OCc2cc(=O)n3nc(C(=O)OC)nc3[nH]2)cc1 [8-7]
CCc1ccc(OCc2cc(=O)n3nc(CO)nc3[nH]2)cc1 [8-8]
CCc1ccc(OCc2cc(=O)n3nc(COC(C)=O)nc3[nH]2)cc1 [8-9]
CCc1ccc(OCc2cc(=O)n3nc(-c4ccncc4)nc3[nH]2)cc1 [8-10]
CCc1ccc(OCc2cc(=O)n3nc(Cc4ccccc4)nc3[nH]2)cc1 [8-11]
CCc1ccc(OCc2cc(=O)n3nc(C4CC4)nc3[nH]2)cc1 [8-12]
Cc1c(Cl)cccc1OCc1cc(=O)n2nc(-c3ccccn3)cc2[nH]1 [8-14]
CCc1ccc(OCc2cc(=O)n3nc(C(=O)O)nc3[nH]2)cc1 [9-1]
CCc1ccc(NCc2cc(=O)n3nc(-c4ccccc4)cc3[nH]2)cc1 [10-1]
Cc1c(Cl)cccc1NCc1cc(=O)n2nc(-c3ccccc3)cc2[nH]1 [10-2]
Cc1c(Cl)cccc1NC(=O)c1cc(=O)n2nc(-c3ccccc3)nc2[nH]1 [11-3]
Cc1c(Cl)cccc1N(C)C(=O)c1cc(=O)n2nc(-c3ccccc3)nc2[nH]1 [11-4]
CCc1ccc(S(=O)(=O)Cc2cc(=O)n3nc(-c4ccccc4)nc3[nH]2)cc1 [12-2]
Cc1c(Cl)cccc1NCc1[nH]c2ncnn2c(=O)c1Cl [13-2]
CCc1ccc(CCc2cc(=O)n3nc(-c4ccccc4)nc3[nH]2)cc1 [14-3]
CCc1ccc(OCc2[nH]c3nc(-c4ccccc4)nn3c(=O)c2C)cc1 [15-3]
Cc1c(Cl)cccc1N(Cc1cc(=O)n2nc(-c3ccccc3)nc2[nH]1)C1CC1 [17-2]
O=c1c(Cl)c(CN2CCCC2Cc2cccc(Cl)c2)[nH]c2nc(-c3ccccc3)nn12 (centres unmarked) [24-5]
O=c1c(Cl)c(CN2CCCC2Cc2ccncn2)[nH]c2nc(-c3ccccc3)nn12 (centres unmarked) [24-6]
O=C(NCC1(CO)CCC1)c1ccccc1OCc1[nH]c2nc(-c3ccccc3)nn2c(=O)c1Cl [24-10]
CC1(NC(=O)c2ccccc2OCc2[nH]c3nc(-c4ccccc4)nn3c(=O)c2Cl)COC1 [24-11]
Cc1c(Cl)cccc1OCc1cc(=O)n2nc(-c3cnccn3)nc2[nH]1 [25-5]
Cc1c(Cl)cccc1OCc1cc(=O)n2nc(-c3cncnc3)nc2[nH]1 [25-6]
Cc1c(Cl)cccc1OCc1cc(=O)n2nc(-c3ccccc3Cl)nc2[nH]1 [25-7]
Cc1c(Cl)cccc1OCc1cc(=O)n2nc(-c3ccccc3F)nc2[nH]1 [25-8]
Cc1c(Cl)cccc1OCc1cc(=O)n2nc(-c3ccccc3)nc2n1C [28-1]
O=c1cc(CN2CCc3c(C4CC4)cccc32)[nH]c2nc(-c3ccccc3)nn12 [29-1]
CN(C)Cc1c(Cl)cccc1OCc1cc(=O)n2nc(-c3ccccc3)nc2[nH]1 [33-1]
O=c1cc(COc2cccc(Cl)c2CNCCN2CCOCC2)[nH]c2nc(-c3ccccc3)nn12 [33-2]
CN1CCN(CCNCc2c(Cl)cccc2OCc2cc(=O)n3nc(-c4ccccc4)nc3[nH]2)CC1 [33-3]

pKd, ≥ 9.00:
COc1ccccc1C1(CNC(=O)c2ccccc2OCc2[nH]c3nc(-c4ccccc4)nn3c(=O)c2Cl)CC1 [24-18]

FABP4 TdF Kd, B (0.5 ≦ B < 0.001 μM):
Cc1c(Cl)cccc1OCc1cc(=O)n2nc(-c3cccs3)nc2[nH]1 [8-13]
CCc1ccc(SCc2cc(=O)n3nc(-c4ccccc4)nc3[nH]2)cc1 [12-1]
Cc1c(Cl)cccc1SCc1cc(=O)n2nc(-c3ccccc3)nc2[nH]1 [16-2]
O=c1cc(CN(c2cccc(Cl)c2)C2CC2)[nH]c2nc(-c3ccccc3)nn12 [17-3]
CN(Cc1cc(=O)n2nc(-c3ccccc3)nc2[nH]1)c1cccc(Cl)c1C1CC1 [18-3]
CNc1cccc(N(C)Cc2cc(=O)n3nc(-c4ccccc4)nc3[nH]2)c1C1CC1 [19-2]
CCc1c(Cl)cccc1OCc1cc(=O)n2nc(-c3ccccc3)nc2[nH]1 [21-3]
COCc1c(Cl)cccc1OCc1cc(=O)n2nc(-c3ccccc3)nc2[nH]1 [22-2]
O=c1c(Br)c(COc2cccc(Cl)c2C2CC2)[nH]c2nc(-c3ccccc3)nn12 [23-1]
CC1(C)CCCC(OCc2[nH]c3nc(-c4ccccc4)nn3c(=O)c2Cl)C1 (centres unmarked) [24-2]
O=c1c(Cl)c(COc2csc(C(F)(F)F)c2)[nH]c2nc(-c3ccccc3)nn12 [24-3]
O=c1c(Cl)c(CN2CCOc3c(Br)cccc32)[nH]c2nc(-c3ccccc3)nn12 [24-4]
O=c1c(Cl)c(COCC2(c3cccc(C(F)(F)F)c3)CC2)[nH]c2nc(-c3ccccc3)nn12 [24-7]
O=C(NCC1(c2ccccc2Cl)CC1)c1ccccc1OCc1[nH]c2nc(-c3ccccc3)nn2c(=O)c1Cl [24-8]
O=C(NCC1(CO)CCCC1)c1ccccc1OCc1[nH]c2nc(-c3ccccc3)nn2c(=O)c1Cl [24-9]
CN(C(=O)c1ccccc1OCc1[nH]c2nc(-c3ccccc3)nn2c(=O)c1Cl)C1CCCCC1 [24-12]
O=C(NC1CCCCC1)c1ccccc1OCc1[nH]c2nc(-c3ccccc3)nn2c(=O)c1Cl [24-13]
O=C(NCCC1CC1)c1ccccc1OCc1[nH]c2nc(-c3ccccc3)nn2c(=O)c1Cl [24-14]
O=C(NCC1CC1)c1ccccc1OCc1[nH]c2nc(-c3ccccc3)nn2c(=O)c1Cl [24-15]
O=C(NCC1(CO)CC1)c1ccccc1OCc1[nH]c2nc(-c3ccccc3)nn2c(=O)c1Cl [24-16]
COCC1(CNC(=O)c2ccccc2OCc2[nH]c3nc(-c4ccccc4)nn3c(=O)c2Cl)CC1 [24-17]
Cc1c(Cl)cccc1OCc1cc(=O)n2nc(-c3ccccn3)nc2[nH]1 [25-3]
Cc1c(Cl)cccc1OCc1cc(=O)n2nc(-c3ccsc3)nc2[nH]1 [25-4]
O=c1c(Cl)c(COc2cccc(Cl)c2C2CCC2)[nH]c2nc(-c3ccccc3)nn12 [26-4]
O=c1cc(COc2cccc(Cl)c2CO)[nH]c2nc(-c3ccccc3)nn12 [30-2]
CC(=O)c1c(Cl)cccc1OCc1cc(=O)n2nc(-c3ccccc3)nc2[nH]1 [31-2]
Cc1ccccc1C(C)Cc1cc(=O)n2nc(-c3ccccc3)nc2[nH]1 (centres unmarked) [35-5]
Cc1c(Cl)cccc1OCc1[nH]c2nc(-c3ccccc3)nn2c(=O)c1F [36-1]
Cc1c(Cl)cccc1OC(C)c1cc(=O)n2nc(-c3ccccc3)nc2[nH]1 (centres unmarked) [37-5]
CC1(C)CN(Cc2cc(=O)n3nc(-c4ccccc4)nc3[nH]2)c2cccc(Br)c21 [39-5]
CCCCC1(C)CN(Cc2cc(=O)n3nc(-c4ccccc4)nc3[nH]2)c2cccc(Cl)c21 (centres unmarked) [41-3]
C=CCc1c(Cl)cccc1OCc1cc(=O)n2nc(-c3ccccc3)nc2[nH]1 [42-3]
C=CCc1ccc(Cl)cc1OCc1cc(=O)n2nc(-c3ccccc3)nc2[nH]1 [42-4]
O=c1cc(COc2cccc(Cl)c2CC2CC2)[nH]c2nc(-c3ccccc3)nn12 [43-2]
O=c1cc(COc2cc(Cl)ccc2CC2CC2)[nH]c2nc(-c3ccccc3)nn12 [43-3]
N#Cc1cccc(OCc2cc(=O)n3nc(-c4ccccc4)nc3[nH]2)c1Cl [45-2]
N#Cc1cccc(OCc2cc(=O)n3nc(-c4ccccc4)nc3[nH]2)c1C1CC1 [46-2]
